Source: a melting point compilation (Tetko et al.; mined from patent text by program, amines drawn as free bases though some values may be those of a salt)

| Structure (SMILES) | melting point [°C] |
| --- | --- |
| O=[S@@]1CCCC[C@@H]1c1cccnc1 | 124 to 126 |
| CCCCC(=N)NC(=O)Nc1ccc([N+](=O)[O-])cc1 | 187 to 191 |
| O=c1n(CCCC2CCCCC2)nnn1-c1ccc(S(=O)(=O)Cl)cc1 | 114 to 115 |
| CC(CN1CC(=O)N(CN2CCSCC2)C(=O)C1)N1CC(=O)NC(=O)C1 (stereo unspecified) | 206 to 208 |
| CC(=O)c1ccc(C(=O)N(C)C)o1 | 101 to 104 |
| CCOC(=O)c1ccc(N2CCN(CC(=O)c3ccc(Cl)cc3)CC2)cc1 | 150 to 152 |
| O=c1c(CCCc2ccccn2)cc2cccnc2n1-c1cccc([N+](=O)[O-])c1 | 201 to 202 |
| CC(=O)NC[C@H]1CN(c2ccc(C(=O)c3cnc4ccc(Br)cn34)cc2)C(=O)O1 | 230 to 232 |
| CC(C)(C)CC(C)(C)c1cc(N=Nc2cc(C(=O)O)ccc2Cl)c(O)c(C(C)(C)c2ccccc2)c1 | 218 to 220 |
| Nc1ccccc1Sc1ccc2c(c1)OCC(=O)N2 | 70 to 71 |
| COc1cccc(-n2c(=O)[nH]c3c(C(N)=O)nc(-c4cccc(O)c4)nc32)c1F | > 260 |
| O=C1CC2(c3ccccc3)CCCC=C2C(=O)N1 (stereo unspecified) | 241 to 243 |
| CC1CC2(CC(C)(C)C1=O)OC(C)C(C)O2 (stereo unspecified) | 71 to 72 |
| CCOC(=O)c1ccc(NC(=O)c2c(OC)cccc2OC)cc1 | 183 to 185 |
| N#Cc1ccc(-c2cc3c(n2-c2ccc(O)c(C(=O)O)c2)CCCC3)cc1 | 242 to 244 |
| CC(C)c1ccc(N)c(C(=O)NCC2CCN(C(c3ccccc3)c3ccccc3)CC2)c1 | 114 to 116 |
| Cc1c(-c2ccccc2)c2c(c3c1[nH]c1ccc(O)cc13)C(=O)NC2=O | 270 to 280 |
| N#Cc1c(Cl)nc(OCC(F)(F)F)nc1N1CCc2ccccc2CC1 | 165 to 167 |
| CCNS(=O)(=O)c1cccc(NC(=O)c2cnn3c(C(F)(F)F)cc(-c4ccc(C(F)(F)F)cc4)nc23)c1 | 207 |
| CC1Oc2ccc(CN3CCN(CCO)CC3)cc2NC1=O (stereo unspecified) | 174 |
| O=c1c2cc(O)ccc2sc2c([N+](=O)[O-])ccc(Cl)c12 | > 300 |
| COC(=O)c1ccc(C(=O)NC(C(=O)N2CCCC2C(=O)NC(C(C)C)C(O)C(F)(F)F)C(C)C)cc1 (mixture of isomers) | 64 to 67 |
| CC(C)(C)c1cc(-n2nc3ccc(S(=O)(=O)c4ccc5nn(-c6cc(C(C)(C)C)cc(C(C)(C)C)c6O)nc5c4)cc3n2)c(O)c(C(C)(C)C)c1 | > 300 |
| Cc1cccnc1C(CO)COc1ccc(CC2SC(=N)NC2=O)cc1 (stereo unspecified) | 213 to 214 |
| N#Cc1cc(C(=O)Nc2cncnc2Cl)ccc1Cl | 189 to 190 |
| CN(C)n1c(Cl)n[nH]c1=O | 158 |

| Structure (SMILES) | melting point [°C] |
| --- | --- |
| CCNC(=O)[C@@H]1C[C@H](OS(C)(=O)=O)CN1C(=O)OC(C)(C)C | 138 to 140 |
| C1=C(c2nc(-c3ccccc3)no2)CCN(Cc2c[nH]c3ncccc23)C1 | 207 to 209 |
| Cc1nc2ccc3c(c2o1)OC(CN1CCC(O)(c2cccc(C(F)(F)F)c2)CC1)CO3 (stereo unspecified) | 148 to 151 |
| COCCNCCC(=O)Nc1nc(-c2ccccc2)c(-c2ccc(=O)n(C(C)C)n2)s1 | 167 to 168 |
| CC1(C)CCC(C)(C)c2cc(-c3cc(-c4ccc(C(=O)O)cc4)ccc3OCCCCO)ccc21 | 235 |
| COc1ccc2c(c1)C1=C(SCC3(CCN(C(=O)c4cccc(Cl)c4)CC3)O1)C(=O)C2=O | 125 to 127 |
| CC(C)(C)C(=O)C(Br)C(Br)C(=O)C(C)(C)C (stereo unspecified) | 107 to 109 |
| CC(=O)c1ccc(N)c(C(=O)c2ccccc2)c1 | 158 to 161 |
| N#Cc1ccc(-c2ccc(-c3ccn([C@H](CC(=O)OCc4ccccc4)C(=O)N[C@H](CO)Cc4ccccc4)c3)cc2)cc1 | 149 to 150 |
| c1ccc(CCOc2c3c(nc4ccccc24)CCN(Cc2ccccc2)CC3)cc1 | < 20 |
| O=C(O)c1cc2cc(Cl)ccc2nc1N[C@@H](Cc1ccc(O)cc1)C(=O)O | 176 to 188 |
| O=C(Nc1nc(=O)c2cnn3c2n1CC=C3c1cccc(C(F)(F)F)c1)c1ccccc1 | 235 to 239 |
| CNC(=O)OC(Cn1ccnc1)c1ccc(Cl)cc1Cl (stereo unspecified) | 106 to 108 |
| O=[N+]([O-])c1ccc2oc(-c3ccccc3)cc2c1 | 159 |
| COc1ccc(N(C)CC2CCOCC2)cc1N | 97 to 99 |
| COc1ccc(-c2nccc(N)n2)cc1 | 102 to 104 |
| O=CNC1Cc2cccc3c2N(CCC3)C1=O (stereo unspecified) | 140 to 143 |
| CC(C)S(=O)(=O)C1C(=O)N(Cc2ccccc2)C(=O)c2ccc(Cl)cc21 (stereo unspecified) | 150 to 152 |
| CCc1[nH]n(C2CCCC2)c2nc(-c3ccccc3OC)nc(=O)c1-2 | 135 to 136 |
| CCC(C)Cc1ccc(C(=O)O)cc1Br (stereo unspecified) | 78.8 to 79.7 |
| CCCCCCCCCCCCCCCCCCOc1cc(N(CC(=O)O)CC(=O)O)cc(S(=O)CC(=O)O)c1 (stereo unspecified) | 138 to 140 |
| Cc1c(C(=O)O)c(CC(=O)O)n(C)c1C(=O)c1ccc(Cl)cc1 | 253 to 254 |
| Cc1cc(Oc2ccc(Cl)c(C(F)(F)F)c2)ncc1N | 105 to 107 |
| CCC(C)c1nn(-c2ccc(C(F)(F)F)cn2)cc1CCCOc1c(CC(=O)O)cccc1OC (stereo unspecified) | 117 to 118 |
| CCCCCN(O)C(=O)Nc1ccc(Cl)c(Cl)c1 | 88 |
| CCOC(=O)/C=C/c1cn(Cc2ccc3cc(OCc4ccccc4)ccc3c2)cc1-c1ccccc1 | 119 to 120 |

| Structure (SMILES) | melting point [°C] |
| --- | --- |
| CCCCc1ccc(NCC)c(C(=O)C(=O)OC(=O)C(=O)c2cc(CCCC)ccc2NCC)c1 | 130 to 132 |
| COC(=O)[C@@H]1O[C@H]1c1ccc(OC)cc1 | 86 to 87 |
| CC1(O)CCC2(C)C(CCC3C2CCC2(C)C(c4cc(CO)on4)CCC32)C1 (stereo unspecified) | 198 to 200 |
| COc1cccc(C2=C(C#N)C(c3ccccc3OC)c3c[nH]nc3N2)c1 (stereo unspecified) | 192 |
| COc1cccc2c(Sc3nc(C)c(CC(=O)O)s3)cc(C(=O)O)nc12 | 176 to 179 |
| CC(=O)NC[C@H]1CN(c2ccc(C=C(Br)Br)c(F)c2)C(=O)O1 | 177 to 179 |
| C=CCc1cc2c(c(CC=C)c1O)CCC(=O)N2CCCN1CCN(c2cccc(Cl)c2)CC1 | 118 |
| COc1ccccc1N1CCN(CCNc2ccccc2C(N)=O)CC1 | 134 to 136 |
| N#Cc1cccc(Oc2ncccc2C(=O)NCc2ccc(S(N)(=O)=O)cc2)c1 | 179 to 180 |
| O=C(C=Cc1ccc(F)c(F)c1)OCCc1ccccc1 | 53 to 57 |
| OC1CCCc2nc3ccccc3c(NCCCOc3ccccc3)c21 (stereo unspecified) | 138 to 140 |
| CNC(=S)NCc1ccc(Br)nc1 | 117 to 118 |
| Oc1cc(-c2cc3n(n2)CCCC3)c(F)cc1Cl | 218 to 220 |
| O=C(NCC1Cc2cccc(-c3ccc(Cl)cc3Cl)c2O1)OCc1ccccc1 (stereo unspecified) | 87 to 89 |
| COC1C(=O)NC=C1Cl (stereo unspecified) | 96 to 98 |
| C#CCN1C(=O)COc2ccc(C3CC(=O)C(C(CC)=NOCC)=C(O)C3)cc21 (stereo unspecified) | 100 to 102 |
| O=C(OCc1ccccc1)C(O)N1C(=O)C2CC=CCC21 (stereo unspecified) | 92 to 93 |
| COc1nc2ccccc2cc1NC(=O)N1CCN(c2cccc(O)c2)CC1 | 190 to 191 |
| Nc1c(-c2ccc(Cl)cc2)nc2ccccc2c1C(=O)O | 243 to 244 |
| COc1c(C)cccc1C(=O)O | 70 to 75 |
| COC(=O)c1cc(-n2c(-c3ccccc3)cc3c2CCc2ccccc2-3)ccc1O | 164 to 166 |
| N#Cc1cc(C#N)cc(C=O)c1 | 203 to 204 |
| COc1ccc(N(C)c2nccc(-c3ccncc3)n2)cc1 | 124 to 126 |
| O=C(NCC(=O)N1c2ccccc2N(Cc2ccccc2)C(=O)[C@H]2CCC[C@H]21)c1ccc([N+](=O)[O-])cc1 (relative stereo) | 231 to 233 |
| COc1cc(Nc2nnc(Cc3ccncc3)c3ccccc23)cc(OC)c1OC | 110 to 111 |
| Cc1cc(Cl)c(Cl)cc1C(=O)O | 176 to 178 |

| Structure (SMILES) | melting point [°C] |
| --- | --- |
| O=S(=O)(c1ccc(Nc2nccc(-c3ccc(C(F)(F)F)cc3)n2)cc1)N1CCOCC1 | 240 to 241 |
| CNc1cc(CCN)ccc1OC | 90 to 92 |
| CC1CC(=O)NN=C1c1ccc2[nH]c(-c3ccncc3)cc2c1 (stereo unspecified) | 301 to 303 |
| Cn1ncc2c1-c1c(SC(C)(C)C)sc(C(N)=O)c1CC2 | 146 to 147 |
| COc1ccc(C2c3c(C)c(NC(=O)CC(C)(C)C)c(C)c(C)c3OC2(C)C)cc1 (stereo unspecified) | 175 to 176 |
| CC(C)COC1OC(CO)C(O)C(O)C1(O)N(C(=O)N(CCCl)N=O)C(C)C (stereo unspecified) | 83 to 85 |
| CNC1=NN(C(=O)c2cccc([N+](=O)[O-])c2)C(C)(C)S1 | 130 to 133 |
| CC(C)(O)C(=O)Nc1ccc(Nc2ccccc2)cc1 | 171 to 174 |
| COc1ccc(-c2csc(CC(=O)O)n2)cc1OC1CC2CCC1C2 (stereo unspecified) | 190 to 191 |
| COc1cc(C)cc2ncc(Br)n12 | 105 to 106 |
| O=C1CCCC(=O)C1Cc1ccccc1CCCCl | 143 to 145 |
| O=C(O)c1ccc(Cl)cc1NCc1cccnc1 | 235 to 236 |
| O=C(O)CCCc1ccc(NS(=O)(=O)c2ccc(Cl)c(Cl)c2)cn1 | 193 to 194 |
| O=C(O)c1cnn2c(C(F)(F)F)cc(-c3ccc(F)c(F)c3)nc12 | 274 |
| Cc1nc(C)c(Cl)c(NCc2nccc(N(C)CCCSCCn3c([N+](=O)[O-])cnc3C)c2Cl)n1 | 123 to 126 |
| CCc1cc(/C=C/C(N)=O)ccc1Cl | 152 to 153 |
| CC(=O)OC1=CC=C2CC3N4CCC25C1OC1C(=O)CCC3(OC4)C15 (stereo unspecified) | 179 to 182 |
| Cc1ccccc1CNC(=O)[C@@H]1CSCN1C(=O)[C@@H](O)[C@H](Cc1ccccc1)NC(=O)C(C)C(C)C(=O)OC[C@H]1O[C@@H](n2cc(C)c(=O)[nH]c2=O)CC1N=[N+]=[N-] (stereo partly specified) | 114 to 115 |
| O=C1Cc2cccc(OCC3CO3)c2ON1 (stereo unspecified) | 158 to 160 |
| CC(C)c1ccc(C(Cl)=NOS(C)(=O)=O)cc1 | 79.5 to 82 |
| CN1CCOc2cc(O)ccc21 | 84 to 87 |
| Cc1cc2[nH]c(=O)c(C(=O)O)c(-c3ccccc3C)c2cc1C | 236 to 237 |
| O=C1Nc2cc(C(F)(F)F)cc(C(F)(F)F)c2C1=O | 200 to 203 |
